Laboratory results published in PMC5198786 (ChemMedChem, 2016).
Where “and” joins values, the source holds several entries; their conditions need not be identical. Equal entries are not always repeated. Entries after “also recorded” stand apart in the source; their conditions may differ. Where two headings read alike, the source gives them in different places.

Legend:
mAC1 = mAC1 (Homo sapiens, UniProt Q08828); assay: mAC assay, HEK293 cells stably expressing AC1; assay type: cell-based; details: for % of control AC1 / effect on selectively-stimulated cAMP response at AC1 (in words): 30 µM; for % of control AC1: HEK293-AC1, stimulated with 3 µM A23187, ± S.E.M.
mAC5 = mAC5 (Homo sapiens, UniProt O95622); assay: mAC assay, HEK293 cells stably expressing AC5; assay type: cell-based; details: for % of control AC5: 30 µM, HEK293-AC5, stimulated with 300 nM forskolin, ± S.E.M.
mAC2 = mAC2 (Homo sapiens, UniProt Q08462); assay: mAC assay, HEK293 cells stably expressing AC2; assay type: cell-based; details: for % of control AC2 / effect on selectively-stimulated cAMP response at AC2 (in words): 30 µM; for % of control AC2: HEK293-AC2, stimulated with 100 nM PMA, ± S.E.M.
B. pertussis ACT = B. pertussis ACT (Bordetella pertussis, UniProt P0DKX7); assay: cell-based; assay type: cell-based
J774A.1 cells = assay: Effect on the viability of J774A.1 cells; assay type: cell-based, murine
edema factor (EF) = edema factor (EF) (Bacillus anthracis, UniProt P40136); assay: biochemical
[1] = read-out: IC50 ACT inhibition in J774A.1 cells

Sequence of mAC5 (O95622 whole entry): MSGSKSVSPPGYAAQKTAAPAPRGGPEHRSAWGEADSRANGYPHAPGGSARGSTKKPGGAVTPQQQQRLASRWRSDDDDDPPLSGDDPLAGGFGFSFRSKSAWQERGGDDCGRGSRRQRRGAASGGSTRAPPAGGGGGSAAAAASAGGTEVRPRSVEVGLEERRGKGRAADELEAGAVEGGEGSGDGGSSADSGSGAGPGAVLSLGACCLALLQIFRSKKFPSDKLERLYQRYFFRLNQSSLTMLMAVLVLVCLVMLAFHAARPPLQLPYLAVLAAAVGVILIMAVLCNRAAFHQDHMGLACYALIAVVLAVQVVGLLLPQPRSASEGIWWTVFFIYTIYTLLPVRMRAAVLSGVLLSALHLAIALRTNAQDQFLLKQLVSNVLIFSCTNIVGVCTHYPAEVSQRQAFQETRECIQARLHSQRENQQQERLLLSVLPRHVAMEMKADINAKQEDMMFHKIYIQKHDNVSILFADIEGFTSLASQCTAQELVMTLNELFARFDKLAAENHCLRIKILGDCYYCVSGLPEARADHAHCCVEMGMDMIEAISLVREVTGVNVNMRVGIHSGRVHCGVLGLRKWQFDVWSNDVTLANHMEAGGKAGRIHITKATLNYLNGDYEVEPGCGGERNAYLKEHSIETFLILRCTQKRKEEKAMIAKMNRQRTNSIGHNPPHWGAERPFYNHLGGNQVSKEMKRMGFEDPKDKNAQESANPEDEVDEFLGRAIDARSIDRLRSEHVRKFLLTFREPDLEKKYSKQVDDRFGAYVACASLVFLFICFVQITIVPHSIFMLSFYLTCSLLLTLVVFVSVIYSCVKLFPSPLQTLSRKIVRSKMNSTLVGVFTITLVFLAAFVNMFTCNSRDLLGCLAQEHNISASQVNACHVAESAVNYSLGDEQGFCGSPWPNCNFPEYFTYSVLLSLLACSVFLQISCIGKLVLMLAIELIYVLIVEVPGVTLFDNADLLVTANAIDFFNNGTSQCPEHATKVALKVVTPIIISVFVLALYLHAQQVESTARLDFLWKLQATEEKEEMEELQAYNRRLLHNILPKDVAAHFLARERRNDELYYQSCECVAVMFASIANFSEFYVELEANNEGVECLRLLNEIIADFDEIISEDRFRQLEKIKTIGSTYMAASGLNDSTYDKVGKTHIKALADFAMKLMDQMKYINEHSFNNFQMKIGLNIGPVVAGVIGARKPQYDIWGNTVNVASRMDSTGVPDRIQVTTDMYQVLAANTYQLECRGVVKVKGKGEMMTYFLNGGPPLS
Sequence of B. pertussis ACT (P0DKX7 whole entry, looked up): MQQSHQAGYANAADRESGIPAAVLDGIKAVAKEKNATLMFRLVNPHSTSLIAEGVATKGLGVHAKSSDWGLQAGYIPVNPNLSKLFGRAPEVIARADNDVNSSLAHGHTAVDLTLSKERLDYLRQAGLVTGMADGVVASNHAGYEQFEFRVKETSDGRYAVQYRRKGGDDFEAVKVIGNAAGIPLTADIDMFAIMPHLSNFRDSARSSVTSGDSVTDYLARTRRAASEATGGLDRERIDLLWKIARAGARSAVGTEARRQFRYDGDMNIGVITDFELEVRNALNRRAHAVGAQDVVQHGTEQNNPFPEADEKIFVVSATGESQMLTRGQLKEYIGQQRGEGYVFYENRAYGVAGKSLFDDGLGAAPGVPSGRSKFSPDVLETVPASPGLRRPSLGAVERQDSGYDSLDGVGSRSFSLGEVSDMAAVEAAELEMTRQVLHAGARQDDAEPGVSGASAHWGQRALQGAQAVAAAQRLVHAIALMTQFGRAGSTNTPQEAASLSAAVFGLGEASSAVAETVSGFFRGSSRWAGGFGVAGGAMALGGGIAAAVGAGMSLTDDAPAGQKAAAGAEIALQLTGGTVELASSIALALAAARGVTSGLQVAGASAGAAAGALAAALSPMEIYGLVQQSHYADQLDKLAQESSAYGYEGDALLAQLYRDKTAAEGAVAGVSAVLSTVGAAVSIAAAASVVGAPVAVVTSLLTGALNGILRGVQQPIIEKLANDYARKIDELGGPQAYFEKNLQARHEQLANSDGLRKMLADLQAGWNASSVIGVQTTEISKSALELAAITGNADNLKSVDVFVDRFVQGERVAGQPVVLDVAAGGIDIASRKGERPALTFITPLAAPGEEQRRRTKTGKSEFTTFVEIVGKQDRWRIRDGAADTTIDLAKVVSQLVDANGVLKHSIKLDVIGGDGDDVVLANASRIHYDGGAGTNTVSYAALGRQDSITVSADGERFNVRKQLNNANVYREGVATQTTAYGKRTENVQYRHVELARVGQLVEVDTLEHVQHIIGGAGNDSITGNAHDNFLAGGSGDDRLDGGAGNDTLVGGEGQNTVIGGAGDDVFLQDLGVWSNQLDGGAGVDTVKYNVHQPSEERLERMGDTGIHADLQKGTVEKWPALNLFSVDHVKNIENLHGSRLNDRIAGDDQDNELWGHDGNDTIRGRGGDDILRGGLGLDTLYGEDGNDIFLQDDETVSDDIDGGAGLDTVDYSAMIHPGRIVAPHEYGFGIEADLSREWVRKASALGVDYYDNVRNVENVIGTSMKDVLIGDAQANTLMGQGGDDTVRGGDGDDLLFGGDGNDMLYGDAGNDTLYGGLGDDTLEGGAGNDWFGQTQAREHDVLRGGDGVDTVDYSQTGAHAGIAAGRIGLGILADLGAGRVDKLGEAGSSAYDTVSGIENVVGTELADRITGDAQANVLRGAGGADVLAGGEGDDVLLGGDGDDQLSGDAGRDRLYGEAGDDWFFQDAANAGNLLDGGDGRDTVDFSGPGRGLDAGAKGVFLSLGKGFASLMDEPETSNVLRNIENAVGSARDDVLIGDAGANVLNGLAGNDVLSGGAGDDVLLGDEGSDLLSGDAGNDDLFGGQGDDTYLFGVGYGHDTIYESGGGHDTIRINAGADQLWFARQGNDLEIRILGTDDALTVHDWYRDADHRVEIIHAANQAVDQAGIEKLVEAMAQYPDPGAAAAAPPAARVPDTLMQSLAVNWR
Sequence of mAC1 (Q08828 whole entry): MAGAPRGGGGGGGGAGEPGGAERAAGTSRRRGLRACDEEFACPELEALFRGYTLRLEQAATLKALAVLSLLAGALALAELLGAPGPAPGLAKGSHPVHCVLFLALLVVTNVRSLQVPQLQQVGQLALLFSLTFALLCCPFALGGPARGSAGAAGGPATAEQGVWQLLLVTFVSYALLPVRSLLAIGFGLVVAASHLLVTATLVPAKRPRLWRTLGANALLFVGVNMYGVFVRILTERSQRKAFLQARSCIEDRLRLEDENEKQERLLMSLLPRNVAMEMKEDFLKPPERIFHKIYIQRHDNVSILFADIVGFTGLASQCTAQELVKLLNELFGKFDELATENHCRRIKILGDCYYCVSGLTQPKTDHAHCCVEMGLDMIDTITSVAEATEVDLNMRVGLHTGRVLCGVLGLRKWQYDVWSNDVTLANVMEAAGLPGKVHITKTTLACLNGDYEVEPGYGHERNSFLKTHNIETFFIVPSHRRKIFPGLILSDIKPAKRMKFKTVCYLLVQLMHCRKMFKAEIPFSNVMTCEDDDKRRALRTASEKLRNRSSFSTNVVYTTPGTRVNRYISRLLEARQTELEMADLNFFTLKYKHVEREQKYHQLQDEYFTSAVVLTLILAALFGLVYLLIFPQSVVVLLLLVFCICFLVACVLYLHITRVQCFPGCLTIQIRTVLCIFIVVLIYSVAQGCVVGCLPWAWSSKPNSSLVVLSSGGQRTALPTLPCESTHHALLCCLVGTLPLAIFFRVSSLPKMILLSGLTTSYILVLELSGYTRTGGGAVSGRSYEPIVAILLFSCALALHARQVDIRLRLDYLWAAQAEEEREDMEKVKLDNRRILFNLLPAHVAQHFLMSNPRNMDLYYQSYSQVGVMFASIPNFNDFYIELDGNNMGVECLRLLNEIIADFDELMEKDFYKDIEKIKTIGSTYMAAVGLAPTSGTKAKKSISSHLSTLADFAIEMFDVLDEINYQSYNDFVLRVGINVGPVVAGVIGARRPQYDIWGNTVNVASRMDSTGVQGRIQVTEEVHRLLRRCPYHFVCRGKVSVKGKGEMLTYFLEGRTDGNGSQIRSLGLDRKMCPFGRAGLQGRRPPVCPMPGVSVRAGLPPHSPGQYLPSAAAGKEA
Sequence of edema factor (EF) (P40136 whole entry, looked up): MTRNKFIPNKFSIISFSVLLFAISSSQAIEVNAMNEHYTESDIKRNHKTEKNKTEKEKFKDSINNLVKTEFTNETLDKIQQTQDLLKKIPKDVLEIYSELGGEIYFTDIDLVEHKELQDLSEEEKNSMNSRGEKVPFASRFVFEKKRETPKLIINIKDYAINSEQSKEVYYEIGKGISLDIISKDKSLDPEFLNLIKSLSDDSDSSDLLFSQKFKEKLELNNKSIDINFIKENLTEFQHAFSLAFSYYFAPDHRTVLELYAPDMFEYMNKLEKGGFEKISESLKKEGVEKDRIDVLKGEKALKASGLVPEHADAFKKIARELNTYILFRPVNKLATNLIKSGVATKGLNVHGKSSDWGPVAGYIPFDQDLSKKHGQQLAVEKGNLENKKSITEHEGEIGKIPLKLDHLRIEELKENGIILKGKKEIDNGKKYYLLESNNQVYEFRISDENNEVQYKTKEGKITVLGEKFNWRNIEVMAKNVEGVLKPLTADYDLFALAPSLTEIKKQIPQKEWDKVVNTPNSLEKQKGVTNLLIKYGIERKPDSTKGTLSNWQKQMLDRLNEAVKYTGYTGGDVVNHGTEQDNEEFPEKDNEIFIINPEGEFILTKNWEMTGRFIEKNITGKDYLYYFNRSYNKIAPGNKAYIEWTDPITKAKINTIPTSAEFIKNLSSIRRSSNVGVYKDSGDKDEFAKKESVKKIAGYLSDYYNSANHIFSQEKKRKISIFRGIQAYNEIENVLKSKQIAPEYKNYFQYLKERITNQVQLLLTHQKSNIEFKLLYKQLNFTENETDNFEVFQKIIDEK

SMILES	% of control AC1 (mAC1) [%]	% of control AC5 (mAC5) [%]	% of control AC2 (mAC2) [%]	IC50 (B. pertussis ACT; [1])	other results
Nc1ccc(Cl)cc1C(=O)NC(CO)Cn1cnc2c(N)ncnc21 (stereo not shown) [Compound 6]	163±34	98±14	161±16	> 15 µM	–
Nc1ncnc2c1ncn2CC(CO)NC(=O)Nc1ccc(Cl)cc1C(=O)O (stereo not shown) [Compound 7, 2-(3-(1-(6-amino-9H-purin-9-yl)-3-hydroxypropan-2-yl)ureido)-5-chlorobenzoic acid]	–	–	–	–	remaining activity at 30 µM (mAC1; HEK293, read-out: % of control AC1): 178 ± 31%; remaining activity at 30 µM (mAC5; HEK293, read-out: % of control AC5): 110 ± 16%; remaining activity at 30 µM (mAC2; HEK293, read-out: % of control AC2): 164 ± 23%; IC50 (B. pertussis ACT): > 15 µM
CC(C)OC(=O)[C@H](Cc1ccccc1)NP(=O)(COCC(Cn1cnc2c(N)ncnc21)NC(=O)c1cc(Cl)ccc1N)N[C@@H](Cc1ccccc1)C(=O)OC(C)C (stereo partly drawn) [Compound 14, Bis(L-phenylalanineisopropyl ester) prodrug of ((3-(6-amino-9H-purin-9yl)-2-N-(5-chloroanthraniloyl)propoxy)methyl)phosphonic acid]	118±12	121±23	172±34	> 15 µM	effect on selectively-stimulated cAMP response at AC1 (in words) (mAC1): slightly potentiated; effect on selectively-stimulated cAMP response at AC2 (in words) (mAC2): slightly potentiated
Nc1ccc(Cl)cc1C(=O)OCC(CO)Cn1cnc2c(N)ncnc21 (stereo not shown) [Compound 20, 9-(3-O-(5-Chloroanthraniloyl)-2-(hydroxymethyl)propyl)adenine]	122±15	114±18	146±10	> 15 µM	–
Nc1ccc(Cl)cc1C(=O)NCC(CO)Cn1cnc2c(N)ncnc21 (stereo not shown) [Compound 22, 9-(3-N-(5-Chloroanthraniloyl)-2-(hydroxymethyl)propyl)adenine]	156±23	101±5	149±26	> 15 µM	–
CC(C)OC(=O)[C@H](Cc1ccccc1)NP(=O)(COCC(COC(=O)c1cc(Cl)ccc1N)Cn1cnc2c(N)ncnc21)N[C@@H](Cc1ccccc1)C(=O)OC(C)C (stereo partly drawn) [Compound 26, Bis(L-phenylalanineisopropyl ester) prodrug of ((3-(6-amino-9H-purin-9yl)-2-(5-chloroanthraniloyloxymethyl)propoxy)methyl)phosphonic acid]	94±10	97±11	149±27	12 µM and 12.1 µM	cytotoxic effect in J774A.1 cells (J774A.1 cells; 10 µM for 5h): no cytotoxic effect; also recorded: no observed cytotoxic effects; Viability (J774A.1 cells; 10 µM, 5 h, versus untreated control): 110%
CC(C)OC(=O)[C@H](Cc1ccccc1)NP(=O)(COCC(CNC(=O)c1cc(Cl)ccc1N)Cn1cnc2c(N)ncnc21)N[C@@H](Cc1ccccc1)C(=O)OC(C)C (stereo partly drawn) [Compound 29, Bis(L-phenylalanineisopropyl ester) prodrug of ((3-(6-amino-9H-purin-9yl)-2-(5-chloroanthraniloylaminomethyl)propoxy)methyl)phosphonic acid]	189±15	118±18	193±48	> 15 µM	effect on selectively-stimulated cAMP response at AC1 (in words) (mAC1): slightly potentiated; effect on selectively-stimulated cAMP response at AC2 (in words) (mAC2): slightly potentiated
Nc1ncnc2c1ncn2CCOCP(=O)(O)OP(=O)(O)OP(=O)(O)O [PMEApp, Adefovir diphosphate]	–	–	–	–	IC50 (edema factor (EF)): 0.0115 ± 0.0026 µM
Nc1ncnc2c1ncn2C1CCCO1 (stereo not shown) [SQ22536, reference compound]	–	64±1	84±5	–	–
